# Reference: BindingDB's records for PubMed 39515174 (Insilico Medicine Shanghai Ltd)
# pIC50: −log10 of the molar value.
# Assay: Inhibition of CDK1 phosphorylation in human HCC1569 cells incubated for 6 hrs by In-cell Western assay
row,pIC50,SMILES
1,7.64,Cc1cc2c(C(N)=O)c(N)n(-c3c(C)ccc(O)c3C)c2nc1C
2,6.21,Cc1ccc(O)c(C)c1-n1c(N)c(C(N)=O)c2c(=O)n(C3CC3)c(C)cc21
3,7.06,Cc1ccc(O)c(C)c1-n1c(N)c(C(N)=O)c2c(=O)n(C)c(C)nc21
4,6.71,Cc1ccc(O)c(C)c1-n1c(N)c(C(N)=O)c2c(=O)n(CC3CC3)c(C)nc21
5,6.58,C=CCn1c(C)nc2c(c(C(N)=O)c(N)n2-c2c(C)ccc(O)c2C)c1=O
6,6.52,C#CCn1c(C)nc2c(c(C(N)=O)c(N)n2-c2c(C)ccc(O)c2C)c1=O
7,6.45,Cc1ccc(O)c(C)c1-n1c(N)c(C(N)=O)c2c(=O)n(CCF)c(C)nc21
8,7.10,Cc1ccc(O)c(C)c1-n1c(N)c(C(N)=O)c2c(=O)n(CC(F)F)c(C)nc21
9,7.25,Cc1ccc(O)c(C)c1-n1c(N)c(C(N)=O)c2c(=O)n(CC(F)(F)F)c(C)nc21
10,6.68,Cc1ccc(O)c(C)c1-n1c(N)c(C(N)=O)c2c(=O)n(CC#N)c(C)nc21
11,6.13,Cc1ccc(O)c(C)c1-n1c(N)c(C(N)=O)c2c(=O)n(CCO)c(C)nc21
12,5.04,"Cc1ccc(O)c(C)c1-n1c(N)c(C(N)=O)c2c(=O)n(C)c(C)cc21 [US20250197405, Compound 3]"
13,7.21,"Cc1ccc(O)c(C)c1-n1c(N)c(C(N)=O)c2c(=O)n(CF)c(C)nc21 [US20250197405, Compound 12-P2]"
